Assay [1] has as its system ARPE-19 cells (retina pigmentary epithelial cells, CRL-2302). The assay is described as follows: ROS generation in ARPE-19 cells under AAPH oxidative stress (DHR123/H2DCFDA). The format is cell-based. Here is the method: (§1) The cellular models used were Foreskin cells (undifferentiated epidermal fibroblasts, CRL-2076) and ARPE-19 cells (retina pigmentary epithelial cells, CRL-2302) obtained from the American Type Culture Collection. The cell cultures were kept in suitable growth conditions of temperature (37° C.), CO2 concentration (5%) and humidity (95%) in an incubator specially designed for this purpose. The ARPE-19 cells were maintained in growth up to confluence of 0.3×10^4 cells/cm^2 in culture flasks with DMEM-F12 medium (Biological Industries) supplemented with 10% bovine foetal serum, penicillin antibiotics (100 U/mL), streptomycin (100 μg/mL) and glutamine (Biological Industries). […]
(§2) The ROS level was measured in primary cultures of human skin CRL-2076 fibroblasts and in ARPE-19 retinal epithelial cells by employing the fluorimetric technique using dihydrorodamine 123 (DHR123, Molecular Probes) and 2,7-dichlorofluorescein diacetate (H2DCFDA, Molecular Probes) as fluorescent probes in a continuous system measuring every 30 min until 180 minutes. […] The fluorescence of the oxidised probes (2,7-dichlorofluorescein and rodamine 123) was measured in a Mithras fluorescence reader at an excitation wavelength of 488 nm and an emission wavelength of 525 nm in function of the time. […]

The subject of assay [2] is Foreskin cells. Description: Lipidic peroxides (TBARS/MDA) in Foreskin cells. It is filed as cell-based, human. Conditions: 40 mM AAPH; 50 μM DHA-TG. Here is the method:
The measurement of malonildialdehyde (MDA) on cell lysates was used as a marker of lipidic peroxidation by UV-Vis spectrophotometry. The MDA and the 4-hydroxyalkenals (HAE) are products derived from the peroxidation of polyunsaturated fatty acids and related esters. Direct measurements of these aldehydes constitutes a convenient index of lipidic peroxidation. A chromogenic reagent (N-methyl-2-phenyl-indole in acetonitrile) which reacts with the MDA at 45° C. was employed, using the commercial lipidic peroxidation kit from Calbiochem (No. 437634). The condensation of one molecule of MDA with two molecules of the chromogenic reagent gives a stable chromophore with maximum absorbance at 586 nm, with the detection limit being 0.1 μM. The induction was carried out for 6 h with 40 mM AAPH and 24 hours of latency. The cells (10^7 cells/mL) were lysed by means of cycles of freezing and thawing in liquid N2. The samples were fractionated in order to measure MDA and protein. The results were expressed in μM of MDA/mg of protein.

Assay [3] deals with Foreskin cells. The assay is described as follows: Superoxide anion generation (luminol chemiluminescence) in Foreskin cells. Conditions: 40 mM AAPH, with or without DHA; 10 mM Tyron or 0.1875 UA/μl exogenous SOD. It is filed as cell-based, human. Here is the method: Direct measurement of the superoxide anion was carried out by means of the chemiluminescence technique on microplate measured by luminol (Calbiochem, No. 574590). Chemiluminescence for detecting the superoxide anion is a technique used due to its potential for gaining access to all the intracellular sites of superoxide generation, due to the high specificity of the reaction with luminol, the minimal intracellular toxicity and the increased sensitivity in relation to other chemical techniques. It is based on the superoxide anion oxidising luminol in a reaction that produces photons of light which are quickly measured on a standard illuminometer. In our tests we used a chemiluminescence reader on microplate from ELISA, MITHRAS and furthermore, given the short half-life of the radical, an enhancer was used to increase the sensitivity of the test and amplify the response. […] The chemiluminescence measurement in the cells submitted to the AAPH oxidative stress inducing treatment was analysed every […] for a total time of 4100 seconds, at a frequency of 120 sec/cycle. […]

Assay [4] relates to Foreskin cells (undifferentiated epidermal fibroblasts, CRL-2076). The assay is described as follows: ROS generation in Foreskin cells under xanthine/xanthine oxidase oxidative stress (CDCFDA). It is filed as cell-based, human. Conditions: 100 μM Vitamin E. Here is the method:
as §1, §2

As for `CCCCS(=N)(=O)CCC(N)C(=O)O` (stereo not shown) [BSO, Buthionine sulfoximine, reference compound], in assay [1], the “effect of addition of BSO on the protective effect of DHA” value is “eliminates the protective effect of DHA”.

Turning to `CC/C=C\C/C=C\C/C=C\C/C=C\C/C=C\C/C=C\CCC(=O)O` [DHA, docosahexaenoic acid], in the assay on Foreskin cells [2], the “protection against lipidic peroxides (TBARS)” value came out at 48%.

As for `O=S(=O)(O)c1cc(O)c(O)c(S(=O)(=O)O)c1` [Tyron, 4,5-dihydroxy-1,3-benzene disulphonic acid, reference compound], in the assay with Foreskin cells [3], the “production of superoxide anion in cells stressed with AAPH” value is listed as “totally inhibited”.

As to vitamin E [reference compound], the “inhibition of cellular oxidation” value in assay [4] was determined as 30%.

(Values after patent US9259408B2, “Use of DHA, EPA or DHA-derived EPA for treating a pathology associated with cellular oxidative damage” (Brudy Technology S.L., priority 2005, dated 2016).)
